melting point | SMILES
186 to 187 °C | O=[N+]([O-])c1ccc(Cl)c(C(=S)Nc2ccc(Oc3ncc(C(F)(F)F)cc3Cl)cc2)c1 [Compound No. 1, N-(4-(3-chloro-5-trifluoromethyl-2-pyridyloxy)phenyl)-2-chloro-5-nitrothiobenzamide]
186 to 187 °C | O=[N+]([O-])c1ccc(Cl)c(C(=S)Nc2ccc(Oc3cc(C(F)(F)F)cc(Cl)n3)cc2)c1 [Compound No. 2, N-(4-(6-chloro-4-trifluoromethyl-2-pyridyloxy)phenyl)-2-chloro-5-nitrothiobenzamide]
132 to 133 °C | O=[N+]([O-])c1ccc(Cl)c(C(=S)NCCCOc2cc(C(F)(F)F)cc(N3CCSCC3)n2)c1 [Compound No. 4, N-(3-(6-thiomorpholino-4-trifluoromethyl-2-pyridyloxy)propyl)-2-chloro-5-nitrothiobenzamide]
72 to 73 °C | O=[N+]([O-])c1ccc(Cl)c(C(=S)Nc2ccc(Sc3ncc(C(F)(F)F)cc3Cl)cc2)c1 [Compound No. 5, N-(4-(3-chloro-5-trifluoromethyl-2-pyridylthio)phenyl)-2-chloro-5-nitrothiobenzamide]
199 to 200 °C | O=[N+]([O-])c1ccc(Cl)c(C(=S)Nc2ccc(Nc3ncc(C(F)(F)F)cc3Cl)cc2)c1 [Compound No. 6, N-(4-(3-chloro-5-trifluoromethyl-2-pyridylamino)phenyl)-2-chloro-5-nitrothiobenzamide]
183 to 186 °C | O=[N+]([O-])c1ccc(Cl)c(C(=S)Nc2ccc(Sc3cc(C(F)(F)F)cc(Cl)n3)cc2)c1 [Compound No. 7, N-(4-(6-chloro-4-trifluoromethyl-2-pyridylthio)phenyl)-2-chloro-5-nitrothiobenzamide]
102 to 103 °C | CN(C)c1cc(C(F)(F)F)cc(OCCCNC(=S)c2cc([N+](=O)[O-])ccc2Cl)n1 [Compound No. 8, N-(3-(6-dimethylamino-4-trifluoromethyl-2-pyridyloxy)propyl)-2-chloro-5-nitrothiobenzamide]
193 °C | O=[N+]([O-])c1ccc(Cl)c(C(=S)Nc2ccc(Oc3ncc(C(F)(F)F)cc3Cl)cc2F)c1 [Compound No. 11, N-(4-(3-chloro-5-trifluoromethyl-2-pyridyloxy)-2-fluorophenyl)-2-chloro-5-nitrothiobenzamide]
146 to 147 °C | O=[N+]([O-])c1ccc(F)c(C(=S)Nc2ccc(Oc3ncc(C(F)(F)F)cc3Cl)cc2F)c1 [Compound No. 12, N-(4-(3-chloro-5-trifluoromethyl-2-pyridyloxy)-2-fluorophenyl)-2-fluoro-5-nitrothiobenzamide]
175 to 176 °C | FC(F)(F)c1cnc(Oc2ccc(NC(=S)c3cnc(Cl)cc3Cl)cc2)c(Cl)c1 [Compound No. 13, N-(4-(3-chloro-5-trifluoromethyl-2-pyridyloxy)phenyl)-4,6-dichlorothionicotinamide]
130 to 133 °C | CN(C)c1cc(C(F)(F)F)cc(OCCCNC(=S)c2cc([N+](=O)[O-])ccc2F)n1 [Compound No. 16, N-(3-(6-dimethylamino-4-trifluoromethyl-2-pyridyloxy)propyl)-2-fluoro-5-nitrothiobenzamide]
229 to 230 °C | N#Cc1ccc(Cl)c(C(=S)Nc2ccc(Oc3ncc(C(F)(F)F)cc3Cl)c(-n3cccc3)c2)c1 [Compound No. 17, N-(4-(3-chloro-5-trifluoromethyl-2-pyridyloxy)-3-(1H-pyrrol-1-yl)phenyl)-2-chloro-5-cyanothiobenzamide]
119 to 120 °C | COc1cc(OC)nc(OCCCNC(=S)c2cc([N+](=O)[O-])ccc2Cl)n1 [Compound No. 18, N-(3-(4,6-dimethoxy-2-pyrimidinyloxy)propyl)-2-chloro-5-nitrothiobenzamide]
220 to 222 °C | COc1cc(OC)nc(Oc2ccc(NC(=S)c3cc([N+](=O)[O-])ccc3Cl)cc2)n1 [Compound No. 19, N-(4-(4,6-dimethoxy-2-pyrimidinyloxy)phenyl)-2-chloro-5-nitrothiobenzamide]
